Source: patent US20240315994A1, “SMALL MOLECULE MODULATORS OF FERROPTOSIS” (ARPEGGIO BIOSCIENCES, INC., priority 2021, published 2024)

Legend:
recombinant GPX4 protein = target: T1, recombinant GPX4 protein (Homo sapiens, UniProt P36969); test: Intact protein mass spectrometry binding to recombinant GPX4; conditions: for binding to recombinant GPX4 in vitro / number of binding events / sites on GPX4 (mass shifts): intact protein mass spectrometry, 2 hours incubation
T1 construct: purchased Cayman Chemical SO960203
T1 sequence (P36969 1-197): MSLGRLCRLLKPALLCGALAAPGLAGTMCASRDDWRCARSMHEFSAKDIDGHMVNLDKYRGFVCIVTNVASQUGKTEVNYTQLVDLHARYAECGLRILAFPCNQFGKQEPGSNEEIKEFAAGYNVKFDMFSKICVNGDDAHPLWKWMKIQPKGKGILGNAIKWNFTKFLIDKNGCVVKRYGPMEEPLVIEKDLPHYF
Description: To determine whether the five ferroptosis-inducing compounds identified in FIG. 3 and FIG. 4 could function through direct binding and inhibition of GPX4, we tested binding of each compound to recombinant GPX4 protein in vitro by intact protein mass spectrometry. Intact mass analysis is the assessment of a protein's total molecular weight by mass spectrometry without prior digestion or fragmentation of the molecule of interest. Covalent binding of a potential inhibitor to GPX4 can be detected by a shift in the mass of the intact protein. For the intact protein analysis, we used ML162, a well-characterized GPX4 inhibitor (available from Sigma Aldrich), as a positive control. […] Briefly, compounds were incubated with recombinant GPX4 protein in vitro for 2 hours before quenching with trifluoroacetic acid (TFA) and analysis by mass spectroscopy.
To determine whether the ferroptosis-inducing compounds 6666 and 8147 could function through direct binding and inhibition of GPX4, we tested binding of each compound to recombinant GPX4 protein in vitro by intact protein mass spectrometry. Compound 8216 was used as a positive control (see FIG. 6). Briefly, 15 μL of GPX4 protein (Cayman Chemical cat #SO960203]) was incubated with 100 µM of each compound ([…]) and diluted with 25.5 μl of PBS. The incubation was performed at room temperature for 2 hours and then the reaction was quenched with 3 μL of trifluoroacetic acid. Samples were subjected to UPLC coupled to Synapt G2 mass spectrometer to evaluate if binding of the test compound to GPX4 occurs. Binding is evident by a mass shift equivalent to the mass size of the compound minus a chlorine atom plus the mass size of the GPX4 protein, as described by the manufacturer.

[1] = tested on: HMOX1 expression in HT-1080 fibrosarcoma cells; test: HMOX1 induction by RT-qPCR in HT-1080 cells; assay type: cell-based; conditions: for HMOX1 induction (RT-qPCR): 10 μM or 5 μM, four hours, normalized to ACTB, relative to DMSO
Procedure: We tested several of our ferroptosis-inducing compounds for their ability to rapidly induce HMOX1 by RT-qPCR. Briefly, HT-1080 fibrosarcoma cells were treated with either 10 µM or 5 µM of compound RSL3, 8216, 1962, 1816, or 3362 for four hours. RNA was isolated and reverse transcribed and HMOX1 expression quantified by qPCR. Each sample was normalized to an ACTB housekeeping gene control and fold change was calculated relative to a DMSO control.
We tested several of the ferroptosis-inducing compounds for their ability to rapidly induce expression of HMOX1. Briefly, HT-1080 fibrosarcoma cells were plated in 6-well dishes 24 hours prior to treatment with 5 μM of 8147, 6047, 3793, Rsl3, 6666 or 8216 with and without the addition of ferrostatin-1 to the media. Cells were harvested from the plate after 4 hours of compound treatment by adding Trizol reagent directly to the plate to lyse the cells and preserve the RNA. RNA was isolated using the Direct-zol 96-well RNA kit (Zymo cat #R2054). Subsequently purity and quantity of RNA in the samples were measured using a Nanodrop (Thermo Fisher cat #ND-ONE-W). RNA samples were normalized to 2 μg and reverse transcribed to cDNA using the Multiscribe High-Capacity Reverse Transcription kit (Thermo Fisher cat #4368814) following manufacturer's instructions. Quantitative real time PCR was carried out in triplicate using SYBR Select Master Mix (Thermo Fisher cat #4472903) following manufacturer's instructions with primers designed against HMOX1 and ActB from IDT. HMOX1 expression levels were normalized to ActB for each sample then fold change was determined against the vehicle control, DMSO.

[2] = tested on: HK-2 kidney epithelial cells; test: HK-2 kidney epithelial cell viability dose response (Cell Titer Glo); assay type: cell-based; conditions: healthy HK-2 vs cancer HT-1080 cells
Procedure: To test whether the ferroptosis-inducing compounds 8216 or 1962 display selectivity for cancer cells we performed a dose response study in HK-2 kidney epithelial cells. HK-2 kidney epithelial cells are a non-cancerous cell line that is commonly used as a “healthy” control in ferroptosis experiments. Briefly, HK-2 kidney epithelial cells were plated 24 hours prior to treatment with concentrations of the ferroptosis-inducing compounds 8216 or 1962 ranging from 10 µM to 10 nM. The ferroptosis-inducing compound RSL3 was used as a positive control. As an additional control, we included a non-specific inducer of apoptosis, staurosporine. Cell Titer Glo® was used to read out cell viability after 48 hours of compound exposure. Data was collected in triplicate.
To determine whether the reduction in viability of HK-2 renal epithelial cells exposed to compounds 8216 or 1962 is driven by induction of ferroptosis, we performed dose response curves for each compound in the presence or absence of ferrostatin-1. We also compared the EC50s for each compound between healthy cells (HK-2 renal epithelial cells) and cancer cells (HT-1080 fibrosarcoma cells) to determine a therapeutic window for healthy vs diseased cells. […] Cell Titer Glo® was used to read out cell viability after 48 hours of compound exposure. […]

[3] = tested on: HT-1080 fibrosarcoma cells; test: Bodipy C-11 lipid peroxidation imaging in HT-1080 cells; assay type: cell-based; conditions: 10 μM, 1 hour, with or without 1.5 μM ferrostatin-1, ferrostatin-1 rescued
Procedure: Compounds 6666, 6047, […], 8216, and 8147 were also evaluated for inducing lipid peroxidation in HT-1080 fibrosarcoma cells in the presence or absence of 1.5 µM ferrostatin-1. Briefly, HT-1080 fibrosarcoma cells were treated with 10 µM of compound with or without 1.5 μM ferrostatin-1 and incubated at 37° C. for 1 hour. Bodipy C-11 and Hoescht stain were then added to the media, the cells were allowed to incubate for an additional 30 minutes and then were imaged on the Opera Phenix confocal screening system.

| binding to recombinant GPX4 in vitro (recombinant GPX4 protein) | number of binding events / sites on GPX4 (mass shifts) (recombinant GPX4 protein) | mass shift of GPX4 (binding) (recombinant GPX4 protein; 100 μM compound, room temperature, 2 hours, UPLC-Synapt G2) | SMILES | HMOX1 induction (RT-qPCR) [1] | therapeutic window (HK-2 vs HT-1080 EC50 difference) [2] | HMOX1 upregulation and rescue by ferrostatin-1 (RT-qPCR) ([1]; 5 μM, 4 hours, with and without ferrostatin-1) | lipid peroxidation (Bodipy C-11 emission shift) [3] |
| --- | --- | --- | --- | --- | --- | --- | --- |
| capable of binding GPX4 | display a single mass shift |  | CCCCCN(C(=O)CCl)c1c(N)n(CCCC)c(=O)[nH]c1=O [Compound 1816] | did not induce HMOX1 |  |  |  |
| capable of binding GPX4 | can bind GPX4 either 2, 3, or 4 times |  | O=C(CCl)N1c2ccccc2OC[C@@H]1c1ccccc1 [Compound 1962] | did not lead to dose responsive induction of HMOX1 |  |  |  |
|  | bind either 1, 2, or 3 times |  | CCOc1ccc(C[C@@H]2c3cc(OCC)c(OCC)cc3CCN2C(=O)CCl)cc1OCC [Compound 3362] | results in induction of HMOX1 |  |  |  |
| capable of binding GPX4 | bind either 1, 2, or 3 times | demonstrate a mass shift | O=C(CCl)N(Cc1ccc(F)cc1)C1CCCCC1 [Compound 8216] | remarkably similar dose-dependent HMOX1 induction | comparable to that of RSL3 | upregulation of HMOX1 which was rescued by the addition of ferrostatin-1, to varying degrees | shift in emission reflective of lipid peroxidation |
